Measured values taken from the supplement of paper PMC10290057.
Where a name gives a salt, the structure may show the parent alone.

System: HCT116
Experiment: efficacy (fitted maximal change in viability relative to DMSO control); higher = less cytotoxic (negative = loss of viability)
Settings: 48 h
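Further: Luminescence-based viability readout, five doses per compound, normalized against on-plate DMSO and empty-well controls, followed by dose-response curve fitting for every drug.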

Row | SMILES | efficacy [%]
1 | CC#CC(=O)N1CC[C@@H](n2c(=O)n(-c3ccc(Oc4ccccc4)cc3)c3c(N)ncnc32)C1 [ONO-4059 (GS-4059)] | -53.5
2 | O=C(Oc1ccc([N+](=O)[O-])cc1)N1CCC(C(O)(c2ccc3c(c2)OCO3)c2ccc3c(c2)OCO3)CC1 [JZL-184] | 9.17
3 | NCCCCCC(=O)O [Aminocaproic acid] | -11.3
4 | OC1=CC=C(C=C1)\C2=C\OC3=C(C=CC(=C3)O)C2=O [Daidzein] | 12.4
5 | O=C(Nc1cccnc1)c1cc(-c2ccnc(F)c2)ccc1OCc1ccccc1 | -24.6
6 | CC[C@H](NC(C)C)[C@H](O)C1=CC=C(O)C2=C1\C=C/C(=O)N2 [Procaterol hydrochloride] | 6.79
7 | COc1cc[nH]c2ncc(C(=O)C(=O)N3CCN(C(=O)c4ccccc4)C[C@H]3C)c1-2 | -10.7
8 | O=C(NCc1ccccc1)[C@H](Cc1ccccc1)NC(=O)[C@H]1O[C@@H]1C(=O)NCCc1ccc(O)cc1 [CAA-0225] | -24.8
9 | CC1=CC(=CC(=C1C\C2=N\CCN2)C)C(C)(C)C [Xylometazoline hydrochloride] | -32.9
10 | CC(C)N(CCCNC(=O)Nc1ccc(C(C)(C)C)cc1)C[C@H]1O[C@@H](n2ccc3c(N)ncnc32)[C@H](O)[C@@H]1O | -31.1
11 | C=C(C)[C@@H]1CC[C@]2(C)CC[C@]3(C)[C@H](CC[C@@H]4[C@@]5(C)CC[C@H](O)C(C)(C)[C@@H]5CC[C@]43C)[C@@H]12 [Lupeol] | -15.6
12 | CCOC(=O)[C@H](CCc1ccccc1)N[C@H]1CCc2ccccc2N(CC(=O)O)C1=O [Benazepril] | -8.42
13 | COc1ccccc1C(=O)Nc1cc2c(cc1N1CCCC1)n(C)c(=O)n2C [PFI-4] | -64
14 | C=C1C(=O)OC(CCCCCCCC)C1C(=O)O (stereo not given) [C75] | -6.41
15 | C[S+](=O)([O-])Nc1ccc([N+](=O)[O-])cc1Oc1ccccc1 [Nimesulide] | -15.6
16 | O=[N+]([O-])c1ccc(-c2nc(-c3ccc(F)cc3)c(-c3ccncc3)[nH]2)cc1 | -23.7
17 | CCOc1ccc(Nc2nc(-c3c(C)nc4ccccn34)cs2)cc1 [JK-184] | -56.2
18 | C[S+]([O-])(=O)C1=CC=C(C=C1)C/2=C(/C(=O)OC2)C3=CC=CC=C3 [Rofecoxib] | -13.7
19 | OCCOc1ccc(/C(=C(/CCCl)c2ccccc2)c2ccccc2)cc1 [Ospemifene] | -49.5
20 | Cc1c(OCC(F)(F)F)ccnc1C[S+]([O-])c1nc2ccccc2[nH]1 (stereo not given) [Lansoprazole] | -18.3
21 | CC1=CC/2=C(C=C1C)N(C[C@@H](O)[C@@H](O)[C@@H](O)CO)C/3=N/C(=O)NC(=O)C3=N2 [Riboflavin] | -9.8
22 | CC1COC2=C3N1\C=C(C(O)=O)/C(=O)C3=CC(=C2N4CCN(C)CC4)F (stereo not given) [Ofloxacin] | -9.68
23 | C#C[C@]1(O)CC[C@H]2[C@@H]3CCc4cc(O)ccc4[C@H]3CC[C@@]21C [Ethinylestradiol] | -54.2
24 | CC(C)NC(=O)N1CC[C@@H](C1)NC/2=N/C3=C(C=CC(=C3)F)N(CC(F)F)C4=C2C=C(Cl)C=C4 [NVS-PAK1-1] | -21.2
25 | COC1CCC(C(=O)c2ccc3nc4c(cc3c2)CCCO4)CC1 (stereo not given) | -17.2
26 | COC1=CC2=C(C=C1OCCCN3CCCC3)\N=C(N)/C24CCC4 [A-366] | 8
27 | CCc1cccc2c3c([nH]c12)[C@@](CC)(CC(=O)O)OCC3 [R-Etodolac] | -22.7
28 | O=C1N(c2ccccc2)c2ccccc2C1(Cc1ccncc1)Cc1ccncc1 [Linopirdine] | -12.1

Row | SMILES | efficacy [%]
29 | C[C@H](NC(=O)/C(C#N)=C/c1cccc(Br)n1)c1ccccc1 [WP-1066] | -83.5
30 | Cc1cc(C)c2c(c1)[C@@H](N(Cc1cc(C(F)(F)F)cc(C(F)(F)F)c1)c1nnn(C)n1)CCCN2C[C@H]1CC[C@H](C(=O)O)CC1 | -31.2
31 | OC1=CC2=C(C(=O)\C=C(/O2)C3=CC=CC=C3)C(=C1O)O [Baicalein] | -14.7
32 | C[C@]12CC[C@H]3[C@@H](C\C=C/4C[C@@H](O)CC[C@]34C)[C@@H]1CCC2=O [Dehydroepiandrosterone] | -17
33 | Cc1ccc(NC(=O)c2cccc(N(C)C)c2)cc1NC(=O)c1ccc(O)cc1 | -21.6
34 | OCc1ccc(-c2ccc(-c3ccc(CO)s3)o2)s1 [RITA] | -46
35 | CN1\C(=C(\O)C2=C(C=CS2)[S+]1([O-])=O)C(=O)NC3=CC=CC=N3 [Tenoxicam] | -10.7
36 | N[C@@H](Cc1ccc(N(CCCl)CCCl)cc1)C(=O)O [Melphalan] | -56.5
37 | CN1CC[C@@H](NC(=O)Nc2ccc(C#N)cc2)C[C@@H]1c1nc2ccccc2[nH]1 [Glasdegib] | -8.71
38 | CN1\C(=C([O-])/C2=CC=CC=C2[S+]1([O-])=O)C(=O)NC3=NC=C(C)S3 [MELOXICAM SODIUM] | 9
39 | O=[N+]([O-])c1cncn1CCN1CCOCC1 [Nimorazole] | -10.3
40 | C[C@@H]1CC2=C(C=C3OCOC3=C2)C(=N\N1C(C)=O)/C4=CC=C(N)C=C4 [Ampanel] | -12.4
41 | COC(=O)[C@@H]1CC/2=C/C(=O)CC[C@]2(C)[C@@]34O[C@@H]3C[C@@]5(C)[C@@H](CC[C@@]56CCC(=O)O6)[C@H]14 [Eplerenone] | -6.15
42 | C[C@]\12CCC(=O)\C=C1[C@@H]3C[C@@H]3[C@@H]4[C@@H]2CC[C@@]5(C)[C@H]4[C@@H]6C[C@@H]6[C@@]57CCC(=O)O7 [Drospirenone] | -38.8
43 | CN(C)CCNC(=O)NC[C@H]1CC[C@@H]2[C@H](O1)c1cc(C(F)(F)F)ccc1N[C@H]2c1ccccc1 | -63.4
44 | CC(C)[C@H](O)C(=O)N[C@@H](C)C(=O)N[C@@H]1C(=O)N(C)CCc2ccccc21 [Semagacestat] | -9.53
45 | c1ccc(CNCc2ccc(CN3CCCNCCNCCCNCC3)cc2)nc1 [AMD-3465] | -13.1
46 | COc1cc2c(cc1OC)C1CC(=O)C(CC(C)C)CN1CC2 (stereo not given) [Tetrabenazine] | -45.5
47 | COC(=O)N1CC2(CC2)C[C@H](C(=O)NO)[C@H]1C(=O)N1CCN(c2ccccc2)CC1 [Aderbasib] | -17
48 | C[C@@H]1[C@H]\2[C@H](O)[C@H]3[C@H](N(C)C)\C(=C(C(N)=O)/C(=O)[C@@]3(O)\C(=C2C(=O)C4=C(O)C=CC=C14)O)O [Doxycycline] | 12.1
49 | CC(C)c1c2cc(-c3ccnc(N[C@H]4CC[C@H](NC5CCOCC5)CC4)n3)ccc2nn1C | -72.3
50 | CC(C)(F)C[C@H](N[C@@H](c1ccc(-c2ccc([S+](C)(=O)[O-])cc2)cc1)C(F)(F)F)C(=O)NC1(C#N)CC1 [Odanacatib] | -28.3
51 | CC#CC(=O)N1CCC[C@H]1c1nc(-c2ccc(C(=O)Nc3ccccn3)cc2)c2c(N)nccn12 [Acalabrutinib] | -13.7
52 | CN(N=O)C(=O)N[C@@H]1[C@@H](O)[C@H](O)[C@@H](CO)O[C@@H]1O [Streptozocin] | -15.5
53 | FC1=C(C=C(C/C2=N/NC(=O)C3=C2C=CC=C3)C=C1)C(=O)N4CCN(CC4)C(=O)C5CC5 [Olaparib] | -38.8
54 | CNCC(O)c1ccc(O)cc1 (stereo not given) [Synephrine] | -16.7
55 | CCO[C@@H]1OC(=O)C[C@@H]1NC(=O)[C@@H]1CCCN1C(=O)[C@@H](NC(=O)c1ccc(N)c(Cl)c1)C(C)(C)C [VX-765] | 23.5
